Measured values from article PMC8763936 (Investigational New Drugs, 2021).
Like-named read-outs stand apart in the source and are kept apart here.

Assays:
[1] = Study 2: midazolam pharmacokinetics alone or with single and multiple dose entrectinib
Source text: Following completion of this part of the study, subjects could continue in an expanded access portion of the study which is not discussed here.

[2] = molecular target: CYP2D6 (Homo sapiens, UniProt P10635); experiment: Effect of CYP-selective inhibitors on metabolism of entrectinib by pooled human liver microsomes; details: inhibitor 1 µM, 1 µM entrectinib
[3] = clinical; details: human, oral
[4] = tested on: CYP3A4/5; experiment: Effect of CYP-selective inhibitors on metabolism of entrectinib by pooled human liver microsomes; assay type: in vitro ADME
[5] = Midazolam with multiple dose entrectinib, geometric mean (geometric CV)
[6] = Midazolam with multiple dose entrectinib, median (minimum, maximum)
[7] = Midazolam with single dose entrectinib, geometric mean (geometric CV)
[8] = Digoxin alone, geometric mean (geometric CV)
[9] = digoxin with entrectinib vs alone
[10] = single dose entrectinib 600 mg vs digoxin alone
[11] = Effect of Multiple Dose Entrectinib
[12] = Effect of Single Dose Entrectinib
[13] = Midazolam alone, geometric mean (geometric CV)
[14] = Midazolam with multiple dose entrectinib 600 mg/day, geometric mean (geometric CV)
[15] = Midazolam with single dose entrectinib 600 mg, geometric mean (geometric CV)

Chain of CYP2D6 (P10635 whole entry): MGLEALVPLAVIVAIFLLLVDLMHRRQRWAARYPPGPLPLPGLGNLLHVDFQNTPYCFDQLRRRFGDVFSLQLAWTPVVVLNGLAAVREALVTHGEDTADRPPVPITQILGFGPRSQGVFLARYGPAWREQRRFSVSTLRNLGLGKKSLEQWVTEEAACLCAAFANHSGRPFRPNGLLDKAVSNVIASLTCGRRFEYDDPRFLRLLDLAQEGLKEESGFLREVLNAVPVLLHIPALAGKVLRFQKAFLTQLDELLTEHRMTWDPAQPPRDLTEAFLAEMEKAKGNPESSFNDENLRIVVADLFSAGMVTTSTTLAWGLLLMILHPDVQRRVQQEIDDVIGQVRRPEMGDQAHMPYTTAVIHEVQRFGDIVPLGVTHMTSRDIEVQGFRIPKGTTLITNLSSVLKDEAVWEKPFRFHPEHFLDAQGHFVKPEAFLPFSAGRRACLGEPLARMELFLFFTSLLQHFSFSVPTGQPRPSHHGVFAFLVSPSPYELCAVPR

Cc1ncc2n1-c1ccc(Cl)cc1C(c1ccccc1F)=NC2 [Midazolam]
t1/2 [1, 5]: 6.4 (68%) h | Tmax [1, 6]: 0.50 (0, 1.05) h | t1/2 [1, 7]: 5.33 (44%) h | half-life ([1]; human, plasma, oral): 8.13 h | Cmax ([1]; human, plasma, oral, 7.5 mg): 19 nM | Tmax ([1]; human, plasma, oral, 7.5 mg): 0.49 h | half-life ([1]; human, plasma, oral, 7.5 mg): 5.2 h | AUC(0-inf) ([1]; human, plasma, oral, 600 mg): 0.0437 µM·h | Cmax ([1]; human, plasma, oral, 600 mg): 12.9 nM | mean t1/2 ([1]; midazolam with a single dose of entrectinib): 5.73 h

C=C[C@H]1C[N@@]2CC[C@H]1C[C@@H]2[C@@H](O)c1ccnc2ccc(OC)cc12 [Quinidine]
Effect on Formation of other Entrectinib Metabolites [2]: + (> 20% inhibition of 1 metabolite)

C[C@H]1O[C@@H](O[C@H]2[C@@H](O)C[C@H](O[C@H]3[C@@H](O)C[C@H](O[C@H]4CC[C@@]5(C)[C@H](CC[C@@H]6[C@@H]5C[C@@H](O)[C@]5(C)[C@@H](C7=CC(=O)OC7)CC[C@]65O)C4)O[C@@H]3C)O[C@@H]2C)C[C@H](O)[C@@H]1O [Digoxin]
AUC(0-inf) ([3]; plasma, 75 mg): 0.0342 µM·h | AUC(0-inf) ([3]; plasma, 600 mg): 0.0404 µM·h | Cmax ([3]; plasma, 600 mg): 2.52 nM | Tmax ([3]; plasma, 600 mg): 2 h | half-life ([3]; plasma, 600 mg): 38.4 h | CL renal ([3]; urine, 600 mg): 123 mL/min | Cmax [8]: 1.97 nM | fe, percent of dose excreted unchanged in urine [8]: 40.2 (13%) | t1/2 [8]: 35.9 (15%) h | fe, percent of dose excreted unchanged in urine (Digoxin alone, geometric mean (geometric CV), listed as digoxin): 40% | Tmax (Digoxin alone, median (minimum, maximum)): 1.0 (0.5, 1.0) h | CLR (Digoxin alone, renal clearance, geometric mean (geometric CV)): 130 (16%) mL/min | fe, percent of dose excreted unchanged in urine (Digoxin with single 600 mg entrectinib, geometric mean (geometric CV)): 44.0 (14%) | fe, percent of dose excreted unchanged in urine (Digoxin with single 600 mg entrectinib, geometric mean (geometric CV), listed as digoxin): 44% | Ratio of adjusted geometric means (90% Confidence Intervals), AUCinf [9]: 1.18 (1.06, 1.32) | Ratio of adjusted geometric means (90% Confidence Intervals), CLR [9]: 0.95 (0.91, 0.98) | Ratio of adjusted geometric means (90% Confidence Intervals), Cmax [9]: 1.28 (0.98, 1.67) | geometric mean ratio of CLR with and without entrectinib (exploratory analysis, 90% CI: 90.9%, 98.4%): 94.6% | Tmax later (single 600 mg dose of entrectinib coadministered with digoxin): approximately 1 h | increase of AUCinf [10]: 18% | increase of Cmax [10]: 28% | increase in digoxin exposure (single oral dose of entrectinib coadministered): 20–30%

CC(=O)N1CCN(c2ccc(OCC3COC(Cn4ccnc4)(c4ccc(Cl)cc4Cl)O3)cc2)CC1 (stereo not drawn) [Ketoconazole]
inhibition of entrectinib metabolism depending on the metabolite formed ([4]; human liver microsomes): 50–80% | inhibition at 1 µM ([4]; human, pooled human liver microsomes, probe entrectinib (metabolism to M5)): 82 ± 3% | Effect on Formation of other Entrectinib Metabolites ([4]; inhibitor 1 µM, 1 µM entrectinib, pooled human liver microsomes): + + + (> 50% inhibition of multiple metabolites)

OCc1ncc2n1-c1ccc(Cl)cc1C(c1ccccc1F)=NC2 [1’-hydroxymidazolam]
Ratio of adjusted geometric means (90% Confidence Intervals), AUCinf [1, 11]: 0.89 (0.70, 1.12) | Ratio of adjusted geometric means (90% Confidence Intervals), Cmax [1, 11]: 0.49 (0.36, 0.67) | Ratio of adjusted geometric means (90% Confidence Intervals), AUCinf [1, 12]: 0.96 (0.83, 1.10) | Ratio of adjusted geometric means (90% Confidence Intervals), Cmax [1, 12]: 0.62 (0.50, 0.76) | Cmax [1, 13]: 6.57 nM | t1/2 [1, 13]: 3.71 (81%) h | Tmax ([1]; Midazolam alone, median (minimum, maximum)): 0.5 (0.25, 1.00) h | AUCinf ([1]; Midazolam alone, single 7.5 mg midazolam dose (title), subjects with advanced solid tumors, geometric mean (geometric CV)): 14.9 (60%) nM•h | AUCinf [1, 14]: 14.0 (42%) nM•h | Cmax [1, 14]: 3.51 nM | t1/2 [1, 5]: 5.37 (75%) h | Tmax [1, 6]: 0.75 (0.5, 5.97) h | AUCinf [1, 15]: 14.4 (52%) nM•h | Cmax [1, 15]: 4.21 nM | t1/2 [1, 7]: 4.56 (49%) h | Tmax ([1]; Midazolam with single dose entrectinib, median (minimum, maximum)): 1.0 (0.48, 23.6) h | metabolic ratio of metabolite to parent for AUCinf and Cmax, point estimates ([1]; coadministration with multiple-dose entrectinib vs midazolam alone): 59% to 64% | decrease of 1’-hydroxymidazolam metabolite-to-parent ratio ([1]; multiple oral doses of entrectinib at steady-state): 41%
